Assay [1] relates to Male Wistar rats. Briefly: Object recognition task (NORT), MK-801 induced cognitive impairment. The conditions noted are these: 0.3 and 1 mg/kg, p.o., FIG. 3.
Experimental: During the familiarization phase, (T1), the rats were placed individually in the arena for 3 minutes, in which two identical objects (a1 and a2) were positioned 10 cm from the wall. Ninety minutes after T1, choice phase was performed. Rats were placed in the same arena as they were placed in T1 trial. During the choice phase (T2) rats were allowed to explore the arena for 3 minutes in presence of a copy of familiar object (a3) and one novel object (b).
The test system of assay [2] is Male Wistar rats. In words: Dominant Submissive Model (DSM) for depression. In kind it is in vivo, rat. The conditions noted are these: 3 mg/kg, p.o., submissive rats treated, significance in 5th week (p<0.05), FIG. 4.
Experimental: A total of 220 male Wistar rats (110 pairs) of ˜150-200 g weight were selected. The animals were randomized on the basis of body weight and matched for body weight, pair wise. The pairs were habituated to the testing apparatus and milk for a period of 5 min per day for 5 days (first week). The animals were housed such that these pairs met only during the trial time. Each pair was given equal access to milk containing 9% sucrose in a beaker (10 mL), which was placed in an opening on the floor at the midpoint of the tunnel. During the second week, time spent in drinking the milk by a pair of rats was recorded and scored for a period of 5 min. Once the 5 min period was over, the rat pair was returned to their respective home cages.
Pairs, which met the above criteria were selected and randomized based on the dominance levels. Both the dominant and submissive animals of the control group were treated with vehicle (sterile water, 4 mL/kg, p.o.). […] During the test period (three weeks), time spent in drinking the milk was recorded for each animal of a pair for a period of 5 min. […] Dominance level (the average of difference in daily drinking score between the dominant and submissive partners during the testing period) was analyzed using repeated measure one way ANOVA followed by Tukey's test against its dominance level during 2nd week (FIG. 4).
The next assay deals with serotonin. Briefly: In vivo brain microdialysis, serotonin modulation in ventral hippocampus. Particulars: Compound-1 3 mg/kg, p.o. alone, rat ventral hippocampus. From the text:
Incorrect probe placement was considered as criteria to reject the data from animal.

The subject of assay [3] is ovariectomized female Wistar rats. In words: Object recognition task, in vivo model for dementia due to menopause. More on the design: species or system rat. The conditions noted are these: ~12 months after surgery, dosed 60 min prior to trial-1, FIG. 1.
Experimental: Bilateral ovariectomy surgery was carried out in 7-8 weeks old female rats. Briefly, animals were anesthetized using Avertin (2,2,2-tri bromo ethanol) at 150 mg/kg, i.p. and were lay down on the surgery table. A midline incision was given on the dorsal region below the rib cage and 1 cm lateral to the either side of midline, a small incision was given on fascia to locate the adipose fat supporting the ovaries. By slowly pulling out the fat tissue, the ovary was identified and excised following the uterine horn ligation with silk sutures. Fascia was also covered with sutures and the similar procedure was repeated on the other side. Superficial skin layers were sutured and gentamicin (15 mg/kg, s.c.) was given as antibiotic and meloxicam (1 mg/kg, i.m.) as analgesic with povidone iodine applied on superficial skin layers at last. Episodic memory which is a memory of autobiographical events contextual in relation to time, place etc. was assessed ˜12 months after the surgery using object recognition task. On experiment day 1, rats were transferred to experimental room for acclimatization. On experiment day 2, all groups of animals were habituated to their respective test arenas for a period of 30 min prior to trial-1. […] Discriminative index (b−a3/b+a3) was calculated and compared among the groups.

On to `COCCCN1CCC(c2nnc(-c3nn(C(C)C)c4ccccc34)o2)CC1.O=C(O)C(=O)O` [Compound-1, Isopropyl-3-{5-[1-(3-methoxypropyl)piperidin-4-yl]-[1,3,4]oxadiazol-2-yl}-1H-indazole oxalate], for which, in the assay with Male Wistar rats [1], the “MK-801 induced memory deficit” value is on record as “reversed”. Besides, in the assay with Male Wistar rats [2], the dominance levels entry is on record as “decreased”. Moreover, the “increase in hippocampal serotonin levels above pre-dose levels” value with serotonin is 22%. Moreover, the “object recognition memory deficits” value in assay [3] is reported as “reversed”.

(Values after patent publication US12285421B2, “Uses of a 5-HT4 receptor agonist” (SUVEN LIFE SCIENCES LIMITED, priority 2018, dated 2025).)
